Converted amounts (≈) assume the structure as drawn. Where two headings read alike, the source gives them in different places.
Columns and labels:
Assay in all cases: MIC, agar dilution, multipoint inoculator
[1] = tested on: S. epidemisis; assay type: cell-based, Staphylococcus epidermidis
Method in brief: (§1)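 Compounds were serially incorporated into Mueller Hinton agar, then each strain was spotted by multipoint inoculator at 10^4 colony forming units per spot. MIC was determined from the dilution series.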

[2] = tested on: E. faecalis; assay type: cell-based
Method in brief: as §1

[3] = tested on: B. bronchiseptica; assay type: cell-based
Method in brief: as §1

[4] = tested on: S. haemolyticus; assay type: cell-based
Method in brief: as §1

[5] = tested on: S. aboni; assay type: cell-based; details: S. aboni NCTC 6017; upper value of MIC reading
Method in brief: as §1

[6] = tested on: S. maltophilia; assay type: cell-based
Method in brief: as §1

[7] = tested on: E. faecium; assay type: cell-based, Enterococcus faecium
Method in brief: as §1

[8] = tested on: MRSA; assay type: cell-based, methicillin-resistant Staphylococcus aureus
Method in brief: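 Agar dilution MIC on Mueller Hinton agar, multipoint inoculator delivering 10^4 colony forming units per spot. MRSA values are ranges across ten clinical MRSA strains; S. aureus NCTC 6571 as reference strain.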

[9] = tested on: E. cloacae; assay type: cell-based, Enterobacter cloacae
Method: (§2) This activity was measured using a multipoint inoculator method as follows. The MIC for each compound was measured using an agar dilution method (Onda, H., et al., Int. J. Antimicrob. Agents. 18, 263 (2001)) (Mueller Hinton agar) by means of a multipoint inoculator delivering 10^4 colony forming units per spot.

[10] = tested on: P. auriginosa; assay type: cell-based, Pseudomonas aeruginosa; details: P. auriginosa NCTC 6749, upper value of MIC reading
Method: as §2

[11] = tested on: E. coli; assay type: cell-based, Escherichia coli; details: Escherichia coli, 18 h, upper value of MIC reading
Method: as §2

[12] = tested on: S. marcesens; assay type: cell-based, Serratia marcescens
Method: as §2

[13] = tested on: K. pneumoniae; assay type: cell-based, Klebsiella pneumoniae
Method: as §2

[14] = tested on: S. aureus; assay type: cell-based, Staphylococcus aureus
Method in brief: as §1

[15] = E. faecalis EBH1, upper value of MIC reading
[16] = E. faecalis Isolate 1, upper value of MIC reading
[17] = E. faecalis Isolate 2, upper value of MIC reading
[18] = E. faecalis Isolate 4, upper value of MIC reading
[19] = MRSA Isolate 1, upper value of MIC reading, in µg/mL
[20] = MRSA Isolate 2, upper value of MIC reading, in µg/mL
[21] = MRSA Isolate 3, upper value of MIC reading, in µg/mL
[22] = MRSA Isolate 4, upper value of MIC reading, in µg/mL
[23] = MRSA Isolate 5, upper value of MIC reading, in µg/mL
[24] = MRSA Isolate 6, upper value of MIC reading, in µg/mL
[25] = MRSA Isolate 8, upper value of MIC reading, in µg/mL
[26] = MRSA Isolate 9, upper value of MIC reading, in µg/mL
[27] = MRSA Isolate 10, upper value of MIC reading, in µg/mL

Q: Which MIC ([1]; Staphylococcus epidermidis, 18 h) does the source give for `CN(C)c1ccc(/C=N/N=C(\N)c2ccncc2)c2ccccc12` [Compound 4PYdx, N^1-[(4-dimethylamino)-1-naphthylidene]-pyridine-4-carboxamidrazone] here?
A: Its MIC is 128 µg/mL (≈ 403 µM).

Q: What about the MIC ([1]; Staphylococcus epidermidis, NCTC11047, 18 h, S. epidemisis NCTC 11047, upper value of MIC reading, read-out: MIC) of the same compound?
A: The MIC was 64 µg/mL (≈ 202 µM).

Q: What about the MIC [2, 15] of the same compound?
A: The MIC was 256 µg/mL (≈ 807 µM).

Q: What about the MIC [2, 16] of the same compound?
A: Its MIC is 256 µg/mL (≈ 807 µM).

Q: What about the MIC [2, 17] of the same compound?
A: The MIC was 256 µg/mL (≈ 807 µM).

Q: And the MIC [2, 18]?
A: The MIC was 256 µg/mL (≈ 807 µM).

Q: What about the MIC ([2]; Enterococcus faecalis, 18 h) of the same compound?
A: The MIC was 256 µg/mL (≈ 807 µM).

Q: And the MIC ([2]; Enterococcus faecalis, NCTC5957, 18 h)?
A: Its MIC is 256 µg/mL (≈ 807 µM).

Q: What about the MIC ([3]; Bordetella bronchiseptica, NCTC8344, 18 h) of the same compound?
A: Its MIC is 256 µg/mL (≈ 807 µM).

Q: And the MIC ([4]; Staphylococcus haemolyticus, 18 h)?
A: The MIC was 256 µg/mL (≈ 807 µM).

Q: And the MIC [5]?
A: Its MIC is 32 µg/mL (≈ 101 µM).

Q: And the MIC ([6]; Stenotrophomonas maltophilia, NCTC10257, 18 h)?
A: The MIC was 128 µg/mL (≈ 403 µM).

Q: What about the MIC ([7]; Enterococcus faecium, 18 h) of the same compound?
A: The MIC was 256 µg/mL (≈ 807 µM).

Q: What about the MIC ([7]; Enterococcus faecium, NCTC7171, 18 h) of the same compound?
A: The MIC was 256 µg/mL (≈ 807 µM).

Q: What about the MIC [8, 19] of the same compound?
A: The MIC was 128.

Q: And the MIC [8, 20]?
A: Its MIC is 128.

Q: What about the MIC [8, 21] of the same compound?
A: The MIC was 128.

Q: What about the MIC [8, 22] of the same compound?
A: Its MIC is 128.

Q: And the MIC [8, 23]?
A: Its MIC is 128.

Q: What about the MIC [8, 24] of the same compound?
A: The MIC was 128.

Q: What about the MIC [8, 25] of the same compound?
A: Its MIC is 128.

Q: What about the MIC [8, 26] of the same compound?
A: The MIC was 128.

Q: And the MIC [8, 27]?
A: Its MIC is 128.

Q: What about the MIC ([8]; Staphylococcus aureus, 18 h) of the same compound?
A: The MIC was 128 µg/mL (≈ 403 µM).

Q: And the MIC ([8]; Staphylococcus aureus, MRSA, 18 h, read-out: MRSA MIC range)?
A: Its MIC is 64 to 128 µg/mL (≈ 202 to 403 µM).

Q: What about the MIC ([9]; Enterobacter cloacae, NCTC11582, 18 h) of the same compound?
A: Its MIC is 256 µg/mL (≈ 807 µM).

Q: And the MIC ([10]; Pseudomonas aeruginosa, NCTC6749, 18 h, read-out: MIC)?
A: The MIC was 32 µg/mL (≈ 101 µM).

Q: And the MIC ([11]; E. coli W3110R+)?
A: Its MIC is 128 µg/mL (≈ 403 µM).

Q: And the MIC ([11]; E. coli W3110R−)?
A: Its MIC is 256 µg/mL (≈ 807 µM).

Q: What about the MIC ([12]; Serratia marcescens, 18 h) of the same compound?
A: The MIC was 256 µg/mL (≈ 807 µM).

Q: And the MIC ([13]; Klebsiella pneumoniae, 18 h)?
A: The MIC was 256 µg/mL (≈ 807 µM).

Q: And the MIC ([14]; Staphylococcus aureus, 18 h)?
A: Its MIC is 128 µg/mL (≈ 403 µM).

Q: And the MIC ([14]; Staphylococcus aureus, NCTC6571, 18 h)?
A: The MIC was 128 µg/mL (≈ 403 µM).

Q: And the MIC ([14]; Staphylococcus aureus, NCTC10788, 18 h)?
A: Its MIC is 128 µg/mL (≈ 403 µM).

Q: How did the MIC ([1]; S. epidemisis Isolate 1, upper value of MIC reading) turn out when `O=[N+]([O-])c1cc(Br)cc(C=NNc2ccccn2)c1O` [HDcl] was run?
A: The MIC was 128 µg/mL (≈ 380 µM).

Q: What about the MIC ([1]; S. epidemisis NCTC 11047, upper value of MIC reading) of the same compound?
A: The MIC was 64 µg/mL (≈ 190 µM).

Q: And the MIC [2, 15]?
A: Its MIC is 128 µg/mL (≈ 380 µM).

Q: And the MIC [2, 16]?
A: The MIC was 128 µg/mL (≈ 380 µM).

Q: And the MIC [2, 17]?
A: The MIC was 32 µg/mL (≈ 94.9 µM).

Q: What about the MIC ([2]; E. faecalis Isolate 3, upper value of MIC reading) of the same compound?
A: The MIC was 16 µg/mL (≈ 47.5 µM).

Q: What about the MIC [2, 18] of the same compound?
A: Its MIC is 128 µg/mL (≈ 380 µM).

Q: What about the MIC ([2]; E. faecalis Isolate 5, upper value of MIC reading) of the same compound?
A: The MIC was 128 µg/mL (≈ 380 µM).

Q: What about the MIC ([2]; E. faecalis NCTC 5957, upper value of MIC reading) of the same compound?
A: The MIC was 128 µg/mL (≈ 380 µM).

Q: What about the MIC ([3]; B. bronchiseptica NCTC 8344, upper value of MIC reading) of the same compound?
A: The MIC was 128 µg/mL (≈ 380 µM).

Q: What about the MIC ([4]; S. haemolyticus Isolate 1, upper value of MIC reading) of the same compound?
A: The MIC was 128 µg/mL (≈ 380 µM).

Q: And the MIC [5]?
A: The MIC was 128 µg/mL (≈ 380 µM).

Q: What about the MIC ([6]; S. maltophilia NCTC 10257, upper value of MIC reading) of the same compound?
A: The MIC was 128 µg/mL (≈ 380 µM).

Q: And the MIC ([7]; E. faecium ACTCC 10541, upper value of MIC reading)?
A: The MIC was 128 µg/mL (≈ 380 µM).

Q: And the MIC ([7]; E. faecium NCTC 7171, upper value of MIC reading)?
A: The MIC was 128 µg/mL (≈ 380 µM).

Q: What about the MIC [8, 19] of the same compound?
A: Its MIC is 128.

Q: What about the MIC [8, 20] of the same compound?
A: The MIC was 128.

Q: And the MIC [8, 21]?
A: The MIC was 128.

Q: And the MIC [8, 22]?
A: Its MIC is 128.

Q: And the MIC [8, 23]?
A: The MIC was 128.

Q: What about the MIC [8, 24] of the same compound?
A: Its MIC is 128.

Q: And the MIC ([8]; MRSA Isolate 7, upper value of MIC reading, in µg/mL)?
A: The MIC was 128.

Q: What about the MIC [8, 25] of the same compound?
A: The MIC was 128.

Q: What about the MIC [8, 26] of the same compound?
A: Its MIC is 128.

Q: What about the MIC [8, 27] of the same compound?
A: Its MIC is 128.

Q: What about the “MRSA MIC range” value ([8]; panel of ten MRSA strains (clinical isolates)) of the same compound?
A: Its value is 64 to 128 µg/mL.

Q: And the MIC ([9]; E. cloacae NCTC 11582, upper value of MIC reading)?
A: The MIC was 256 µg/mL (≈ 759 µM).

Q: What about the MIC [10] of the same compound?
A: The MIC was 128 µg/mL (≈ 380 µM).

Q: What about the MIC ([12]; S. marcesens 4444, upper value of MIC reading) of the same compound?
A: The MIC was 256 µg/mL (≈ 759 µM).

Q: What about the MIC ([13]; K. pneumoniae 327, upper value of MIC reading) of the same compound?
A: The MIC was 128 µg/mL (≈ 380 µM).

Q: And the MIC ([14]; S. aureus Cowan 1, upper value of MIC reading)?
A: Its MIC is 128 µg/mL (≈ 380 µM).

Q: What about the MIC ([14]; S. aureus NCTC 6571, upper value of MIC reading) of the same compound?
A: The MIC was 128 µg/mL (≈ 380 µM).

Q: What about the MIC ([14]; S. aureus NCTC 10788, upper value of MIC reading) of the same compound?
A: The MIC was 128 µg/mL (≈ 380 µM).
